Tests used:
[1] = Daily observation of fish for behavior, adverse drug reactions and mortalities (three studies); type: in vivo, Atlantic salmon, Salmo salar L.; conditions: at the dosage levels and dosage schedule of the invention
Method: Fish were held in replicate groups in plastic fiber tanks, each with a volume of 0.54 m^3. Each tank was supplied with natural sea water at ambient temperature (7-14° C.) and salinity (30-35 ppt), at flow rates of approximately 18 l. min^−1. The tanks were fitted with mesh screens over the water outlet to retain uneaten fish pellets. Fish were observed daily for behavior and adverse drug reactions. Fish mortalities and the occurrence of gross sea lice damage were also recorded.

[2] = tested on: parasites; test: Sustained efficacy after emamectin treatment; type: in vivo

4″-deoxy-4″ epimethylaminoavermectin B1 [emamectin]
toxicity to fish populations [1]: not toxic
sustained efficacy after treatment [2]: 8 to 10 weeks
